# Reference: patent publication US20180128815A1, “METHOD OF SCREENING AN AGENT FOR INHIBITING RECURRENCE OR METASTASIS OF BREAST CANCER” (GACHON UNIVERSITY OF INDUSTRY-ACADEMIC COOPERATION …, priority 2014, published 2018)
# Tests used:
# Assay type in all cases: cell-based
# [1] = test system: 4T1 murine breast cancer cell line; test: IGF1 immunofluorescence staining, 4T1 cells with or without Wnt signaling inhibitor
# Method: (§1) In order to confirm the expression level of IGF1 gene, one of the five genes discovered above, within a cell, the 4T1 murine breast cancer cell line and MCF7 human breast cancer cell line were cultured via adhesion culture method and suspending culture method in the same manner as in Example 1 under the condition of with or without the treatment of the Wnt signaling inhibitor (CWP232228, JW Pharmaceutical, Korea) and thereby obtained the respective culture products.
# (§2) The thus obtained respective culture products were added with mouse anti-IGF1 antibodies (Milipore, cat. #05-172) to perform a primary reaction, and then added with anti-mouse IgG antibodies (Invitrogen cat.A11001) to perform a secondary reaction, thereby performing an immunofluorescence staining regarding the IGF1 gene, which was observed under an optical microscope (Zeiss LSM 510) and the expression level of IGF1 was measured (FIG. 3).
# [2] = test system: MCF7 human breast cancer cell line; test: IGF1 immunofluorescence staining, MCF7 cells with or without Wnt signaling inhibitor
# Method: as §1, §2
# [3] = test system: 4T1 murine breast cancer cell line (suspending culture, cancer stem cells); test: RTQ-PCR of stem cell marker genes in suspension-cultured 4T1 cells with or without Wnt signaling inhibitor; conditions: 1 μM applied 4 times, once in two days, 8 days suspending culture
# Method: Then, the 4T1 murine breast cancer cell line was added with a DMEM medium containing 20 ng/mL of EGF, 20 ng/mL of bFGF, 4 μg/mL of heparin, and B27, and cultured via suspending culture at 37° C. with […] for 7 days to obtain a culture product in a spherical form.
# First, 4T1 murine breast cancer cell line was cultured via the suspending culturing method in the same manner as in Example 1-1 for 8 days under the condition of with or without the treatment of the Wnt signaling inhibitor (CWP232228, JW Pharmaceutical, Korea). In particular, the Wnt signaling inhibitor was applied a total of 4 times once in two days at a concentration of 1 μM.
# Then, the thus obtained culture products were subjected to RNeasy Plus Mini Kit (Qiagen Inc, Valencia, Calif.) and the total RNA was extracted from each of the culture products. The thus-extracted each of the total RNA was subjected to random hexamer and ReverAid H Minus First Strand cDNA Synthesis Kit (Thermo scientific) to synthesize their respective cDNAs. […] The data obtained via RTQ-PCR was analyzed and, based on the 2-deltadelta ct values among the respective cells cultured, the genes with at least a 2-fold difference and a P value<0.05 were selected. […]
# [4] = adhesion culture, regardless of treatment
# [5] = suspending culture (cancer stem cells)
structure (smiles),measurement,setting,value
C=CCN1CC(=O)N2[C@@H](Cc3ccc(OP(=O)([O-])[O-])cc3)C(=O)N(Cc3cccc4cn(C)nc34)C[C@@H]2N1C(=O)NCc1ccccc1.[Na+].[Na+] [CWP232228],"IGF1 gene expression (immunofluorescence, FIG. 3)",[1]; [4],not expressed
same,"level of IGF1 gene expression (immunofluorescence, FIG. 3)",[1]; [5],deceased
same,"IGF1 gene expression (immunofluorescence, FIG. 3)",[2]; [4],not expressed
same,"level of IGF1 gene expression (immunofluorescence, FIG. 3)",[2]; [5],deceased
same,"difference in expression of IGF1, Id2, MMP2, MMP9 and Wnt5a genes (2-deltadelta ct, Stem cell PCR array) treated vs untreated",[3]; P value<0.05,≥ 2 fold
same,"expression of IGF1, Id2, MMP2, MMP9 and Wnt5a genes by RTQ-PCR with specific primers (FIG. 2)",[3]; treated vs untreated,significant difference in their expression
